# According to patent publication US20260199444A1, “VACCINES AGAINST PROTEIN TYROSINE PHOSPHATASE RECEPTOR TYPE Z1 (PTPRZ1) -POSITIVE TUMORS” (ALTEVAX, priority 2022, published 2026):
# How the values were obtained:
# [1] = tested on: HLA-A2/DR1 mice; test: Melanin-based vaccine (plus CpG-28) subcutaneous immunization, CD8 T-cell response by IFNg-SFC count of re-stimulated splenocytes; type: in vivo; settings: for T-cell Immune response: mean +/− SEM (number of mice): peptide 10 μg/mouse with synthetic melanin (peptide/L-Dopa 1/4) and CpG-28 10 μg/mouse, subcutaneous, day 8, splenocytes re-stimulated with the corresponding MHC class I epitope; for immune response after immunization (in words): melanin-based vaccine, HLA-A2/DR1 mice
# Description: For the purpose of selecting a relevant PTPRZ1 antigen to be used in human patients, several peptides containing various PTPRZ1 immune epitopes were screened. The immunogenicity of these various peptides were screened by vaccinations in HLA-A2/DR1 mice (also known as Surel1 model). HLA-A2/DR1 mice are transgenic mice mimicking the human's immune system. As a vaccine procedure for screening, a melanin-based vaccine was used, as described in WO2021165306.
# Using a melanin-based vaccine in HLA-A2/DR1 mice, these epitopes were then screened using peptides (SEQ ID NO: 5 to SEQ ID NO: 8) containing the epitope and an additional cysteine at the NH2-terminal, as it was disclosed in WO2021165306 that this modification increases the efficacy of melanin-based vaccine.
# For immunizations, L-Dopa (0.8 mg/ml) underwent an oxidative polymerization at pH 8.5 in aerobic conditions for 2 hours at 60° C. The reaction mixture was then filtered on a 10 kDa filter, and the retentate containing the synthetic melanin was resuspended in phosphate buffer. Peptides (10 μg/mouse) containing the epitopes (underlined) were then added (at the weight ratio peptide/L-Dopa=1/4) and the mixtures were used for subcutaneous immunizations in mice. Phosphorothioate oligonucleotide CpG-28 (5′-[…], SEQ ID NO: 16) was added to vaccine formulations (10 μg/mouse) just before the immunizations. Mice were sacrificed on day 8 and the CD8 T-cell response was performed as described in Carpentier; 2017. Briefly, splenocytes were re-stimulated in vitro with the corresponding MHC class I-epitope (non-conjugated to melanin) and the numbers of IFNg-SFCs (Spot forming cells) were measured and expressed as Mean+/−S.E.M.
# [2] = tested on: HLA-A2/DR1 mice; test: Peptide plus CpG-28 without melanin, subcutaneous immunization, CD8 T-cell response by IFNg-SFC count of re-stimulated splenocytes; type: in vivo; settings: for T-cell Immune response: mean +/− SEM (number of mice): peptide 10 μg/mouse with CpG-28 10 μg/mouse, no melanin, subcutaneous, day 8, splenocytes re-stimulated with the corresponding MHC class I epitope
# Experimental: In a different adjuvant formulation, SEQ ID NO: 4 and SEQ ID NO: 14 were studied in HLA-A2/DR1 mice.
# The peptides (10 μg/mouse) were mixed with the TLR9 agonist CpG-28 (SEQ ID NO: 16) (10 μg/mouse) and the mixtures were used for subcutaneous immunizations in mice. Mice were sacrificed on day 8 and the CD8 T-cell response was performed as described in Carpentier; 2017. Briefly, splenocytes were re-stimulated in vitro with the corresponding MHC class I-epitope (non-conjugated to melanin) and the numbers of IFNg-SFCs (Spot forming cells) were measured and expressed as Mean+/−S.E.M.
# [3] = tested on: transgenic SURE mice; test: Cross reactivity of T-cell responses after immunization with SEQ 14, splenocytes re-stimulated with SEQ 14 or native epitope SEQ 4; type: in vivo; settings: immunized with SEQ ID NO: 14, day 8, re-stimulation 18 hours, 5 μg/ml to 0.3 ng/ml, FIG. 1
# Experimental: FIG. 1: cross reactivity of T-cell responses obtained after immunizations with SEQ 14 in transgenic SURE mice. Mice were immunized against SEQ 14, as described in table 1, and sacrificed on day 8. The splenocytes (5.10^5 cells/well) were re-stimulated in vitro for 18 hours with either SEQ 14 or the native epitope SEQ 4 (both non-conjugated to melanin), at various concentrations (5 μg/ml to 0.3 ng/ml) and the numbers of IFNg-SFCs (Spot forming cells) were measured after a 18-hour incubation (representative experiments from 3 experiments)
# Mice were thus immunized with SEQ ID NO: 14, and it was checked whether T-cell response triggered by SEQ ID NO: 14 was able to similarly recognize the mutated epitote SEQ ID NO: 15 and the native epitope SEQ ID NO: 4.
# [4] = tested on: patients; settings: glioblastoma patients, Hilf et al (2019); cited from earlier work
Substance,T-cell Immune response: mean +/− SEM (number of mice) [1],also measured
KIWEHNVEV [SEQ ID NO: 15],118 +/− 26 (n = 7) IFNg-SFCs,
H MIWEHNVEV (HMIWEHNVEV) [SEQ ID NO: 11],60 +/− 25 (n = 7) IFNg-SFCs,
KK KIWEHNVEV (KKKIWEHNVEV) [SEQ ID NO: 14],287 +/− 26 (n = 8) IFNg-SFCs,"T-cell Immune response: mean +/− SEM (number of mice) [2]: 25 +/− 13 (n = 7) IFNg-SFCs; CD8 immune response after immunization without melanin (in words) ([2]; peptide with CpG-28, no melanin, compared with SEQ ID NO: 4): more potent; immune response after immunization (in words) [1]: strong CD8 immune response; reactivity against the native epitope (SEQ ID NO: 4) of lymphocytes primed with the modified epitope, compared with reactivity against the modified epitope [3]: even higher"
"MIWEHNVEV [SEQ ID NO: 4, reference compound]",3 +/− 1 (n = 7) IFNg-SFCs,T-cell Immune response: mean +/− SEM (number of mice) [2]: 11 +/− 4 (n = 7) IFNg-SFCs; reactive CD8+ T cells against the peptide after immunization of patients [4]: found in some patients
C MIWEHNVEV (CMIWEHNVEV) [SEQ ID NO: 8],24 +/− 8 (n = 8) IFNg-SFCs,immune response after immunization (in words) [1]: able to trigger an immune response; immune response after immunization (in words) ([1]; listed as SEQ 8): weak
KP MIWEHNVEV (KPMIWEHNVEV) [SEQ ID NO: 13],80 +/− 34 (n = 7) IFNg-SFCs,
PK MIWEHNVEV (PKMIWEHNVEV) [SEQ ID NO: 12],61 +/− 30 (n = 7) IFNg-SFCs,
CKVFAGIPTV [SEQ ID NO: 5],288 +/− 37 (n = 8) IFNg-SFCs,immune response after immunization (in words) [1]: powerful immune response
C AIIDGVESV (CAIIDGVESV) [SEQ ID NO: 7],3 +/− 1 (n = 4) IFNg-SFCs,
P MIWEHNVEV (PMIWEHNVEV) [SEQ ID NO: 10],40 +/− 15 (n = 7) IFNg-SFCs,
CVLDSHIHAYVNALLIPGPAGK [SEQ ID NO: 6],7 +/− 5 (n = 4) IFNg-SFCs,
